Experimental data taken from PubChem BioAssay AID608 (Sanford-Burnham Center for Chemical Genomics, 2007).
Active and inactive are the calls of the source. No rule for the calls is given here.

Molecular target: Peptidyl-prolyl cis-trans isomerase FKBP1A (Homo sapiens) (UniProt P62942)
Experiment: small-molecule binding to FKBP12 – biophysical, NMR detection (AID 608)
Conditions: purified FKBP12

Sequence of Peptidyl-prolyl cis-trans isomerase FKBP1A (Homo sapiens) (P62942 whole entry, looked up): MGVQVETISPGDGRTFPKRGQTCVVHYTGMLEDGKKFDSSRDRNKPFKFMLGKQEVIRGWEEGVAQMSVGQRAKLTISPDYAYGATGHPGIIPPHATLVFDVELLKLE

Compound | Kd
O=c1c2ccccc2nc(-c2ccco2)n1-c1nccs1 | > 4 mM (inactive)
NC1=NC(=O)CC(C(=O)Nc2ccccc2)S1 (stereo not drawn) | > 4 mM (inactive)
C[C@@H]1OC(O[C@H]2[C@H](OC(=O)[C@]34CCC(C)(C)CC3C3=CCC5[C@@]6(C)CC[C@H](OC7O[C@@H](C)[C@H](O[C@@H]8OC[C@@H](O)[C@H](O)[C@H]8O)[C@@H](O)[C@H]7O)C(C)(C)C6CC[C@@]5(C)[C@]3(C)CC4O)OC[C@H](O)[C@H]2O)[C@H](O)[C@H](O)[C@H]1O[C@@H]1O[C@H](CO)[C@@H](O)[C@H](O)[C@H]1O (stereo partly drawn) | > 4 mM (inactive)
O=c1ccc2c([nH]1)CCCC2 | > 4 mM (inactive)
O=C(NCC1CCCCC1)c1ccco1 | > 4 mM (inactive)
O=C(Nc1ccccc1CO)c1ccccc1F | > 4 mM (inactive)
Cc1cc(C)cc(NS(=O)(=O)N2CCCCC2)c1 | inactive
C=C(C)[C@@H]1[C@H]2OC(=O)[C@@H]1[C@]1(O)C[C@H]3O[C@]34C(=O)O[C@H]2[C@]14C | > 4 mM (inactive)
O=C(CNC(=O)c1cccs1)NC1=NCCS1 | > 4 mM (inactive)
OC[C@@H](O)[C@@H](O[C@@H]1O[C@H](CO)[C@@H](O)[C@H](O)[C@H]1O)[C@H](O)[C@@H](O)CO | > 4 mM (inactive)
NC(=O)C1CCN(CC2CC=CCC2)CC1 (stereo not drawn) | > 4 mM (inactive)
COc1cc2c(cc1OC)Cc1cc(OC)c(OC)cc1Cc1cc(OC)c(OC)cc1C2 | > 4 mM (inactive)
COc1ccc2c(c1)C(NC(C)=O)C(=O)N2C (stereo not drawn) | > 4 mM (inactive)
O=C(/C=C(\O)c1ccccc1)c1ccccc1O | > 4 mM (inactive)
CC1(C)Oc2ccc(N)cc2O1 | > 4 mM (inactive)
CCOC(=O)CSCC(=O)Nc1nccs1 | > 4 mM (inactive)
Nc1cccc(OCC(=O)N2CCOCC2)c1 | > 4 mM (inactive)
CC1(C)C(=O)C=C[C@@]2(C)C1CC(=O)[C@]1(C)C2CC[C@@]2(C)[C@H](c3ccoc3)OC(=O)[C@H]3O[C@]321 (stereo partly drawn) | > 4 mM (inactive)
C=C[C@@]1(C)CC(=O)[C@@]2(O)[C@](C)(O1)[C@@H](OC(C)=O)[C@@H](O)C1C(C)(C)CC[C@H](O)[C@@]12C (stereo partly drawn) | > 4 mM (inactive)
COc1cc([C@@H]2c3cc4c(cc3[C@H](OC(C)=O)[C@H]3COC(=O)[C@@H]23)OCO4)cc(OC)c1OC | > 4 mM (inactive)
CSc1nc(C)c(Oc2ccccc2)c(=O)n1C | > 4 mM (inactive)
COCCn1c(C)cc(O)cc1=O | > 4 mM (inactive)
NC1=NCc2ccccc21 | > 4 mM (inactive)
O=C(CN1CCOCC1)Nc1cccc(Br)c1 | > 4 mM (inactive)
O=C(O)Cc1noc2ccccc12 | > 4 mM (inactive)
CCN(CC)C(=O)c1n[nH]c(=O)c2ccccc12 | > 4 mM (inactive)
CC(C)Nc1ncnc2c1nnn2C | > 4 mM (inactive)

Compound | Kd
CC(C)(C)CC(=O)N1CCC(C(N)=O)CC1 | > 4 mM (inactive)
COc1ccc([C@@H](C)C(=O)c2ccc(O)cc2O)cc1 | > 4 mM (inactive)
COc1ccccc1/C=C\C(=O)O | > 4 mM (inactive)
S=c1[nH]nc(-c2cccnc2)n1Cc1ccccc1 | > 4 mM (inactive)
CCOC(=O)c1c(C)cc(O)c(C=O)c1O | > 4 mM (inactive)
O=C1CCN(c2ccccc2)N1 | > 4 mM (inactive)
O=C(Nc1ccc2c(c1)OCCO2)c1c(F)cccc1F | > 4 mM (inactive)
O=C(NCc1cccs1)c1ccc2c(c1)OCCO2 | > 4 mM (inactive)
Cc1ccc(N)nc1 | > 4 mM (inactive)
CNC(=O)N1CCN(C(=O)NC)CC1 | > 4 mM (inactive)
O=C1C2C3C=CC(C3)C2C(=O)N1CCO (stereo not drawn) | > 4 mM (inactive)
O=C(O)C1C(=O)NCC1c1ccccc1 (stereo not drawn) | > 4 mM (inactive)
O=C(O)CNCC(O)Cn1c2ccccc2c2ccccc21 (stereo not drawn) | > 4 mM (inactive)
COc1ccccc1NC(N)=S | > 4 mM (inactive)
O=C(c1ccccc1)c1ccccc1C(=O)N1CCOCC1 | > 4 mM (inactive)
O=C(c1sc2cc(F)ccc2c1Cl)N1CCOCC1 | inactive
O=S(=O)(c1cccc2cccnc12)N1CCOCC1 | > 4 mM (inactive)
CC(=O)Nc1nnc(-c2ccccn2)o1 | > 4 mM (inactive)
O=C(COc1ccc(S(=O)(=O)Nc2cccc(C(F)(F)F)c2)cc1)N1CCOCC1 | inactive
COc1c2ccoc2nc2c(OC)c(OCC(O)C(C)(C)O)ccc12 (stereo not drawn) | > 4 mM (inactive)
COc1ccc2c(Cl)c(C(=O)N3CCOCC3)sc2c1 | inactive
CCC[C@@H]1CCCCN1 | > 4 mM (inactive)
CN1CCn2c1nc(N1CCOCC1)nc2=O | > 4 mM (inactive)
CN1CCC(NC(=O)Cc2c(F)cccc2Cl)CC1 | > 4 mM (inactive)
CSc1cccc(NC(=O)c2c(Cl)cnn2C)c1 | > 4 mM (inactive)
OC1CCC(C(F)(F)F)CC1 (stereo not drawn) | > 4 mM (inactive)
